Like-named read-outs stand apart in the source and are kept apart here.
How the values were obtained:
HCV = test: In vitro anti-HCV assay in HCV RNA-replicating cell line AVA5; format: cell-based; conditions: HCV
Procedure: The antiviral activity of test compounds were assayed in the stably HCV RNA-replicating cell line. AVA5, derived by transfection of the human hepatoblastoma cell line, Huh^7 (Blight et al., 2000). Experimental drugs were added to dividing cultures once daily for three days. Media was changed with each addition of compound. Cultures generally started the assays at 50% confluence and reached confluence during the last day of treatment. HCV RNA and cellular β-actin RNA levels were assessed 24 hours after the last dose of compound using dot blot hybridization. Assays were conducted using a single dose of test compound (in triplicate cultures).
Both HCV and β-actin RNA levels in the treated cultures were expressed as a percentage of the mean levels of RNA detected in untreated cultures. β-actin RNA levels were used both as a measure of toxicity, and to normalize the amount of cellular RNA in each sample. A level of 30% or less HCV RNA (relative to control cultures) was considered to be a positive antiviral effect, and a level of 50% or less β-actin RNA (relative to control cultures) is considered to be a cytotoxic effect.
Dividing cultures of AVAB cells were treated once daily for three days (media was changed with each addition of compound) with 4 concentrations of test compounds (3 cultures per concentration). A total of 6 untreated control cultures, and triplicate cultures treated with 10, 3, and 1 IU/ml α-interferon (active antiviral with no cytotoxicity), and 100, 10, and 1 μM ribavir ([…]) served as controls. HCV RNA and cellular β-actin FNA levels were assessed 24 hours after the last dose of compound using dot blot hybridization. β-actin RNA levels were used to normalize the amount of cellular RNA in each sample.
Toxicity analyses were performed on separate plates from those used for the antiviral assays. Cells for the toxicity analyses were cultured and treated with test compounds with the same schedule and under identical culture conditions used for the antiviral evaluations. Each compound was tested at 4 concentrations, each in triplicate cultures. Uptake of neutral red dye was used to determine the relative level of toxicity 24 hours following the last treatment. The absorbance of internalized dye at […] (A510) was used for the quantitative analysis. Values in test cultures were compared to 9 cultures of untreated cells maintained on the same plate as the test cultures.
Assays similar to those described above were conducted.

HSV-1 strain KOS1.1 [1] = format: cell-based; conditions: for yield of cell-free and cell-associated virus: 24 hours post-infection, MOI 50, BCD 7.2 mg/ml, ACV 400 μg/ml or both, pre, during and post infection treatment (FIG. 1)
[2] = tested on: dlsptk (an ACV-resistant, tk deletion mutant of HSV-1); format: cell-based; conditions: MOI 10
HSV-1 strain KOS1.1 [3] = test: CPE reduction assay in Vero cells, HSV-1; format: cell-based
HSV-2 strain MS = test: CPE reduction assay in Vero cells, HSV-2; format: cell-based
Vero cells = test: Cell viability by LDH release assay; format: cell-based; conditions: 48 hours
Procedure: FIG. 3 depicts the effects of ACV alone (400 μg/ml) and β-CD alone (8 mg/ml) on the viability of Vero cells as monitored by the LDH release assay after 24 hours of treatments (A); and after 48 hours of treatments (B). All data represents means+SD of two separate experiments.
Cell viability assay. Cell viability was determined fluorometrically by estimating the release of LDH into the media (Moran and Schnellman, 1996). LDH activity was based on the reduction of pyruvate to lactate. The concomitant oxidation of NADH results in a decrease in the fluorescence emission at 450 nm with excitation wavelength 355 nm, and the rate of disappearance of NADH is indicative of LDH activity.
To study the effects of formulations on viability of preformed monolayers, 3 to 4×10^6 Vero cells were added to 1× MEM-5% FBS in T75 flasks. […] Used media were replaced with 15 ml of treatment media, containing 5× MEM-FBS diluted to 1× with water (control), acyclovir stock (400 μg/ml), or β-CD stock (8 mg/ml in water). […]
Reaction solution was made fresh for each experiment by mixing 0.4 ml of 16.2 mM pyruvate with 10 ml of 0.2 mM NADH in phosphate buffer (pH 7.5). […] The amount of LDH calculated for either condition was then compared with and expressed as a percentage of the total LDH present.
Used media were replaced with 15 ml/flask or 2.5 ml/well of treatment media, containing 5× MEM-FBS diluted to 1× with water (control), and […]CD stock. […] Live cells are distinguished by the presence of intracellular esterase activity, as determined by the enzymatic conversion of calcein-AM (nonfluorescent) to calcein (green fluorescence). EthD-1 enters cells with damaged cell membranes and binds to nucleic acids producing red fluorescence to identify dead cells. […] For LDH assays, cells were trypsinized, resuspended in fresh 1× medium, kept at 37° C.-5% CO2 atmosphere, and total LDH present in cells and medium was determined after lysing the cells with 350 μM digitonin. The amount of LDH calculated for either condition was then compared with and expressed as a percentage of the total LDH present. […]

Aqueous solubility = format: physicochemical
d27-lacZ1 (β-gal HSV) = test: Semi-quantitative PCR of intracellular HSV DNA (HSV entry); conditions: MOI 0.01 or 0.1, β-CD 7.2 mg/ml pre-, 5.4 mg/ml post-infection, versus untreated infected cells

OC[C@H]1O[C@@H]2O[C@H]3[C@H](O)[C@@H](O)[C@@H](O[C@H]4[C@H](O)[C@@H](O)[C@@H](O[C@H]5[C@H](O)[C@@H](O)[C@@H](O[C@H]6[C@H](O)[C@@H](O)[C@@H](O[C@H]7[C@H](O)[C@@H](O)[C@@H](O[C@H]8[C@H](O)[C@@H](O)[C@@H](O[C@H]1[C@H](O)[C@H]2O)O[C@@H]8CO)O[C@@H]7CO)O[C@@H]6CO)O[C@@H]5CO)O[C@@H]4CO)O[C@@H]3CO [BCD, β-cyclodextrin]
S.I. for HCV (HCV): 1.13 | reduction of KOS1.1 virus yield at 24 hours (HSV-1 strain KOS1.1 [1]; 6.4 mg/ml BCD, MOI 10, post-infection treatment): approximately 10^3 fold | yield of cell-free and cell-associated virus (HSV-1 strain KOS1.1 [1]): more effective at reducing virus numbers than ACV alone | yield of cell-free and cell-associated virus (HSV-1 strain KOS1.1 [1]; listed as β-CD): reduced to a greater extent by β-CD than by a fairly high concentration of acyclovir | effect on yield of acyclovir-sensitive HSV KOS1.1 (FIG. 2) (HSV-1 strain KOS1.1 [1]; MOI 10, 20 μM ACV or 6.4 mg/ml β-CD for 24 hours): lowered the yield | reduction of ACV-resistant virus yield ([2]; 6.4 mg/ml BCD, 24 hours): approximately 10^3 PFU | effect on yield of acyclovir-resistant dlsptk virus (FIG. 2) ([2]; 20 μM (4.5 μg/ml) ACV or 6.4 mg/ml β-CD for 24 hours): lowered the yield | protection of Vero cells by inhibition of viral CPE (HSV-1 strain KOS1.1 [3]; HSV-1, MOI 0.001 and 0.1, BCD 7-8 mg/ml): almost complete protection | inhibition of infection, direct microscopy and crystal violet staining (HSV-1 strain KOS1.1 [3]; HSV-1, MOI 2.0 (data not shown)): inhibited infection | anti-herpes effects at high multiplicity of infection (HSV-1 strain KOS1.1 [3]; HSV-1, MOI >50, BCD 7-8 mg/ml): exhibited anti-herpes effects | anti-HSV activity compared with acyclovir (HSV-1 strain KOS1.1 [3]; β-CD 7.2 mg/ml): comparable to acyclovir in the range of 200 to 400 μg/ml | protection of Vero cells by inhibition of viral CPE (HSV-2 strain MS; HSV-2, MOI 0.001 and 0.1, BCD 7-8 mg/ml): almost complete protection | inhibition of infection, direct microscopy and crystal violet staining (HSV-2 strain MS; HSV-2, MOI 2.0): inhibited infection | anti-herpes effects at high multiplicity of infection (HSV-2 strain MS; HSV-2, MOI >50, BCD 7-8 mg/ml): exhibited anti-herpes effects | cell viability (LDH assay) (Vero cells; 8.0 mg/ml BCD): 68.57% | decrease in cell viability (Vero cells; β-CD 8 mg/ml, Vero cells): 30-40% | solubility (Aqueous solubility; read-out: concentration at which solubility becomes a limiting issue): > 8000 µg/mL | solubility (Aqueous solubility; water, read-out: concentrations at which insoluble in water): > 10000 µg/mL | amount of intracellular viral DNA / viral entry (d27-lacZ1 (β-gal HSV)): did not significantly alter viral entry | amount of intracellular viral DNA / viral entry (d27-lacZ1 (β-gal HSV); listed as β-CD): No significant differences

Reference: patent US20070219159A1, “CYCLODEXTRIN COMPOSITIONS AND METHODS OF TREATING VIRAL INFECTIONS” (priority 2002, published 2007)
